System: LG0567-F671-PDC complex spheroids viability
Test: Anticancer human tumor LG0567-F671-PDC patient-derived lung adenocarcinoma cell line growth inhibition [RAS]
Settings: for viability, T/C: stronger effect = lower value
Summary of the method: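 Tumour cells grown as complex spheroids with HUVEC endothelial cells and mesenchymal stem cells, treated with RAS pathway inhibitor combinations. Each agent spans half-log steps from near clinical Cmax, or 10 microM where Cmax is unknown.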

[1] = curve of first compound, second compound 0.000949 µM
[2] = curve of first compound, second compound 0.003 µM
[3] = curve of first compound, second compound 0.00949 µM
[4] = curve of first compound, second compound 0.03 µM
[5] = curve of first compound, second compound 0.0949 µM
[6] = curve of first compound, second compound 0.3 µM
[7] = second compound 0.000949 µM, first compound 0.00316 µM
[8] = second compound 0.000949 µM, first compound 0.01 µM
[9] = second compound 0.000949 µM, first compound 0.0316 µM
[10] = second compound 0.000949 µM, first compound 0.1 µM
[11] = second compound 0.000949 µM, first compound 0.316 µM
[12] = second compound 0.000949 µM, first compound 1 µM
[13] = second compound 0.003 µM, first compound 0.00316 µM
[14] = second compound 0.003 µM, first compound 0.01 µM
[15] = second compound 0.003 µM, first compound 0.0316 µM
[16] = second compound 0.003 µM, first compound 0.1 µM
[17] = second compound 0.003 µM, first compound 0.316 µM
[18] = second compound 0.003 µM, first compound 1 µM
[19] = second compound 0.00949 µM, first compound 0.00316 µM
[20] = second compound 0.00949 µM, first compound 0.01 µM
[21] = second compound 0.00949 µM, first compound 0.0316 µM
[22] = second compound 0.00949 µM, first compound 0.1 µM
[23] = second compound 0.00949 µM, first compound 0.316 µM
[24] = second compound 0.00949 µM, first compound 1 µM
[25] = second compound 0.03 µM, first compound 0.00316 µM
[26] = second compound 0.03 µM, first compound 0.01 µM
[27] = second compound 0.03 µM, first compound 0.0316 µM
[28] = second compound 0.03 µM, first compound 0.1 µM
[29] = second compound 0.03 µM, first compound 0.316 µM
[30] = second compound 0.03 µM, first compound 1 µM
[31] = second compound 0.0949 µM, first compound 0.00316 µM
[32] = second compound 0.0949 µM, first compound 0.01 µM
[33] = second compound 0.0949 µM, first compound 0.0316 µM
[34] = second compound 0.0949 µM, first compound 0.1 µM
[35] = second compound 0.0949 µM, first compound 0.316 µM
[36] = second compound 0.0949 µM, first compound 1 µM
[37] = second compound 0.3 µM, first compound 0.00316 µM
[38] = second compound 0.3 µM, first compound 0.01 µM
[39] = second compound 0.3 µM, first compound 0.0316 µM
[40] = second compound 0.3 µM, first compound 0.1 µM
[41] = second compound 0.3 µM, first compound 0.316 µM
[42] = second compound 0.3 µM, first compound 1 µM
[43] = second compound 0.000949 µM, first compound 3.16 µM
[44] = second compound 0.000949 µM, first compound 10 µM
[45] = second compound 0.003 µM, first compound 3.16 µM
[46] = second compound 0.003 µM, first compound 10 µM
[47] = second compound 0.00949 µM, first compound 3.16 µM
[48] = second compound 0.00949 µM, first compound 10 µM
[49] = second compound 0.03 µM, first compound 3.16 µM
[50] = second compound 0.03 µM, first compound 10 µM
[51] = second compound 0.0949 µM, first compound 3.16 µM
[52] = second compound 0.0949 µM, first compound 10 µM
[53] = second compound 0.3 µM, first compound 3.16 µM
[54] = second compound 0.3 µM, first compound 10 µM
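Also: spheroids exposed to compound for seven days before readout.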
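For IC50 in this document: luminescence signal used as a proxy for viable cells.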

C=CC(=O)Nc1cc(Nc2nccc(-c3cn(C)c4ccccc34)n2)c(OC)cc1N(C)CCN(C)C + CCn1c(-c2cc(N3CCN(C)CC3)cnc2C(C)OC)c2c3cc(ccc31)-c1csc(n1)CC(NC(=O)C1CC1C)C(=O)N1CCCC(N1)C(=O)OCC(C)(C)C2
IC50 [1]: < 3.16 nM
IC50 [2]: < 3.16 nM
IC50 [3]: < 3.16 nM
IC50 [4]: < 3.16 nM
IC50 [5]: < 3.16 nM
IC50 [6]: < 3.16 nM
viability, T/C [7]: 24.1%
viability, T/C [8]: 19.9%
viability, T/C [9]: 17.7%
viability, T/C [10]: 11.7%
viability, T/C [11]: 5.93%
viability, T/C [12]: 2.95%
viability, T/C [13]: 11.5%
viability, T/C [14]: 10.2%
viability, T/C [15]: 8.59%
viability, T/C [16]: 4.71%
viability, T/C [17]: 3.14%
viability, T/C [18]: 1.73%
viability, T/C [19]: 6.67%
viability, T/C [20]: 6.47%
viability, T/C [21]: 4.89%
viability, T/C [22]: 3.67%
viability, T/C [23]: 1.84%
viability, T/C [24]: 1.07%
viability, T/C [25]: 3.85%
viability, T/C [26]: 3.87%
viability, T/C [27]: 11.8%
viability, T/C [28]: 2.59%
viability, T/C [29]: 1.49%
viability, T/C [30]: 0.76%
viability, T/C [31]: 3.44%
viability, T/C [32]: 2.65%
viability, T/C [33]: 2.81%
viability, T/C [34]: 2.03%
viability, T/C [35]: 1.32%
viability, T/C [36]: 0.84%
viability, T/C [37]: 2.71%
viability, T/C [38]: 2.18%
viability, T/C [39]: 2.37%
viability, T/C [40]: 1.85%
viability, T/C [41]: 1.11%
viability, T/C [42]: 0.63%

NC1c2ccccc2OC12CCN(c1cnc3c(N4CCCc5ncccc54)n[nH]c3n1)CC2 (stereo not drawn) + CCn1c(-c2cc(N3CCN(C)CC3)cnc2C(C)OC)c2c3cc(ccc31)-c1csc(n1)CC(NC(=O)C1CC1C)C(=O)N1CCCC(N1)C(=O)OCC(C)(C)C2
IC50 [1]: < 31.6 nM
IC50 [2]: < 31.6 nM
IC50 [3]: < 31.6 nM
IC50 [4]: < 31.6 nM
IC50 [5]: < 31.6 nM
IC50 [6]: < 31.6 nM
viability, T/C [9]: 6.06%
viability, T/C [10]: 4.3%
viability, T/C [11]: 2.12%
viability, T/C [12]: 1.95%
viability, T/C [43]: 1.97%
viability, T/C [44]: 1.51%
viability, T/C [15]: 3.74%
viability, T/C [16]: 2.3%
viability, T/C [17]: 1.62%
viability, T/C [18]: 1.58%
viability, T/C [45]: 1.33%
viability, T/C [46]: 1.84%
viability, T/C [21]: 2.32%
viability, T/C [22]: 1.6%
viability, T/C [23]: 1.26%
viability, T/C [24]: 0.84%
viability, T/C [47]: 1.05%
viability, T/C [48]: 1.1%
viability, T/C [27]: 1.64%
viability, T/C [28]: 1.27%
viability, T/C [29]: 1.19%
viability, T/C [30]: 0.92%
viability, T/C [49]: 1.02%
viability, T/C [50]: 0.81%
viability, T/C [33]: 1.33%
viability, T/C [34]: 1.55%
viability, T/C [35]: 0.92%
viability, T/C [36]: 0.69%
viability, T/C [51]: 0.98%
viability, T/C [52]: 0.76%
viability, T/C [39]: 1.37%
viability, T/C [40]: 1.39%
viability, T/C [41]: 0.9%
viability, T/C [42]: 0.72%
viability, T/C [53]: 0.85%
viability, T/C [54]: 0.72%

CCN1CCN(Cc2ccc(Nc3ncc(F)c(-c4cc(F)c5nc(C)n(C(C)C)c5c4)n3)nc2)CC1 + CCn1c(-c2cccnc2C(C)OC)c2c3cc(ccc31)N1CCOC(CC(NC(=O)C(C(C)C)N(C)C(=O)C3(F)CCN(C(=O)C#CC(C)(C)N(C)C)CC3)C(=O)N3CCCC(N3)C(=O)OCC(C)(C)C2)C1
IC50 [1]: < 3.16 nM
IC50 [2]: < 3.16 nM
IC50 [3]: < 3.16 nM
IC50 [4]: < 3.16 nM
IC50 [5]: < 3.16 nM
IC50 [6]: < 3.16 nM
viability, T/C [7]: 15%
viability, T/C [8]: 15.8%
viability, T/C [9]: 14.2%
viability, T/C [10]: 14.7%
viability, T/C [11]: 18.1%
viability, T/C [12]: 17.5%
viability, T/C [13]: 14.2%
viability, T/C [14]: 16.5%
viability, T/C [15]: 13%
viability, T/C [16]: 15.9%
viability, T/C [17]: 18.7%
viability, T/C [18]: 19.9%
viability, T/C [19]: 15.2%
viability, T/C [20]: 13.4%
viability, T/C [21]: 14.1%
viability, T/C [22]: 14.8%
viability, T/C [23]: 16.5%
viability, T/C [24]: 17.4%
viability, T/C [25]: 13.1%
viability, T/C [26]: 12.9%
viability, T/C [27]: 13.7%
viability, T/C [28]: 13.9%
viability, T/C [29]: 16.8%
viability, T/C [30]: 16.5%
viability, T/C [31]: 16%
viability, T/C [32]: 13.3%
viability, T/C [33]: 11.8%
viability, T/C [34]: 12.2%
viability, T/C [35]: 15%
viability, T/C [36]: 15.1%
viability, T/C [37]: 10.5%
viability, T/C [38]: 9.89%
viability, T/C [39]: 10.4%
viability, T/C [40]: 10.7%
viability, T/C [41]: 13.8%
viability, T/C [42]: 11.4%

CC(=O)OC12COC1CC(O)C1(C)C(=O)C(O)C3=C(C)C(OC(=O)C(O)C(NC(=O)OC(C)(C)C)c4ccccc4)CC(O)(C(OC(=O)c4ccccc4)C21)C3(C)C (stereo not drawn) + CCn1c(-c2cccnc2C(C)OC)c2c3cc(ccc31)N1CCOC(CC(NC(=O)C(C(C)C)N(C)C(=O)C3(F)CCN(C(=O)C#CC(C)(C)N(C)C)CC3)C(=O)N3CCCC(N3)C(=O)OCC(C)(C)C2)C1
IC50 [1]: < 31.6 nM
IC50 [2]: < 31.6 nM
IC50 [3]: < 31.6 nM
IC50 [4]: < 31.6 nM
IC50 [5]: < 31.6 nM
IC50 [6]: < 31.6 nM
viability, T/C [9]: 12.9%
viability, T/C [10]: 10.5%
viability, T/C [11]: 11%
viability, T/C [12]: 11.9%
viability, T/C [43]: 11.6%
viability, T/C [44]: 8.54%
viability, T/C [15]: 13.3%
viability, T/C [16]: 11.5%
viability, T/C [17]: 11.2%
viability, T/C [18]: 11.5%
viability, T/C [45]: 11.5%
viability, T/C [46]: 9.41%
viability, T/C [21]: 11.1%
viability, T/C [22]: 10.2%
viability, T/C [23]: 12.1%
viability, T/C [24]: 10.1%
viability, T/C [47]: 11.2%
viability, T/C [48]: 8.58%
viability, T/C [27]: 10.2%
viability, T/C [28]: 10.9%
viability, T/C [29]: 10.7%
viability, T/C [30]: 9.38%
viability, T/C [49]: 10.1%
viability, T/C [50]: 7.46%
viability, T/C [33]: 8.76%
viability, T/C [34]: 7.61%
viability, T/C [35]: 8.1%
viability, T/C [36]: 9.57%
viability, T/C [51]: 8.69%
viability, T/C [52]: 6.64%
viability, T/C [39]: 7.24%
viability, T/C [40]: 6.04%
viability, T/C [41]: 6.63%
viability, T/C [42]: 6.97%
viability, T/C [53]: 7.51%
viability, T/C [54]: 5.29%

C#Cc1c(F)ccc2cc(O)cc(-c3ncc4c(N5CC6CCC(C5)N6)nc(OCC56CCCN5CC(F)C6)nc4c3F)c12 (stereo not drawn)
viability, T/C (compound 0.0316 µM): 91.2% [middle of 8 runs]
viability, T/C (compound 0.1 µM): 80% [middle of 8 runs]
viability, T/C (compound 0.316 µM): 56.1% [middle of 8 runs]
viability, T/C (compound 1 µM): 36.8% [middle of 8 runs]
viability, T/C (compound 3.16 µM): 19.6% [middle of 8 runs]
viability, T/C (compound 10 µM): 12.4% [middle of 8 runs]
IC50 (compound alone, run of 09/09/2024): 494 nM [middle of 8 runs]

C=CC(=O)Nc1cc(Nc2nccc(-c3cn(C)c4ccccc34)n2)c(OC)cc1N(C)CCN(C)C
viability, T/C (compound 0.01 µM): 92.5% [middle of 4 runs]
viability, T/C (compound 0.0316 µM): 86% [middle of 4 runs]
viability, T/C (compound 0.1 µM): 68.7% [middle of 4 runs]
viability, T/C (compound 0.316 µM): 42.7% [middle of 4 runs]
viability, T/C (compound 1 µM): 23.2% [middle of 4 runs]
IC50 (curve of compound): 225 nM [middle of 4 runs]

Nc1ccn(C2OC(CO)C(O)C2(F)F)c(=O)n1 (stereo not drawn)
viability, T/C (compound 0.00316 µM): 93.3% [middle of 4 runs]
viability, T/C (compound 0.01 µM): 81% [middle of 4 runs]
viability, T/C (compound 0.0316 µM): 79.1% [middle of 4 runs]
viability, T/C (compound 0.1 µM): 71.7% [middle of 4 runs]
viability, T/C (compound 0.316 µM): 69.5% [middle of 4 runs]
viability, T/C (compound 1 µM): 61.7% [middle of 4 runs]
IC50 (curve of compound): > 1000 nM

— PubChem BioAssay AID2060889 (Molecular Pharmacology Branch, DTP, NCI, 2025)
